In article PMC6522510 (Nature Communications, 2019):
Structures can show the parent of a compound that is named as a salt.

Legend:
Test in all cases: cells
Parameters in all cases: species or system AML cell lines (8); Secondary HTS, 10-point dose-response in triplicate, Cell Titer Glo viability, four-parameter fit EC50
MOLM-13 = conditions: Homo sapiens, MOLM-13, 72 h, read-out: MOLM-13
CHRF288-11 = conditions: 72 h, read-out: CHRF288-11
ML-2 = conditions: Homo sapiens, ML-2, 72 h, read-out: ML-2
U937 = conditions: Homo sapiens, U-937, 72 h, read-out: U937
MV4-11 = conditions: Homo sapiens, MV4-11, 72 h, read-out: MV4-11
CMS = conditions: 72 h, read-out: CMS
M07e = conditions: M-07e, 72 h, read-out: M07e
CMK = conditions: Homo sapiens, CMK, 72 h, read-out: CMK

SMILES	EC50 (MOLM-13)	EC50 (U937)	EC50 (MV4-11)	EC50 (CHRF288-11)	EC50 (ML-2)	EC50 (CMS)	EC50 (M07e)	EC50 (CMK)
O=c1[nH]c(=O)n([C@H]2C[C@H](O)[C@@H](CO)O2)cc1/C=C/Br [BRIVUDINE]	> 10 µM	> 10 µM	> 10 µM	> 10 µM	> 10 µM	> 10 µM	> 10 µM	> 10 µM
Nc1nc(OCc2ccccc2)c2nc[nH]c2n1 [Compound O6-BENZYLGUANINE]	> 10 µM	> 10 µM	> 10 µM	> 10 µM	> 10 µM	> 10 µM	> 10 µM	> 10 µM
Cn1cc(C2=C(c3cn(C4CCN(Cc5ccccn5)CC4)c4ccccc34)C(=O)NC2=O)c2ccccc21 [ENZASTAURIN]	> 10 µM	> 10 µM	> 10 µM	> 10 µM	> 10 µM	> 10 µM	> 10 µM	> 10 µM
CC(C(=O)O)c1ccc(-c2ccccc2)c(F)c1 (stereo not shown) [FLURBIPROFEN]	> 10 µM	> 10 µM	> 10 µM	> 10 µM	> 10 µM	> 10 µM	> 10 µM	> 10 µM
CC(C)n1c(/C=C/C(O)CC(O)CC(=O)O)c(-c2ccc(F)cc2)c2ccccc21 (stereo not shown) [FLUVASTATIN]	> 10 µM	> 10 µM	> 10 µM	> 10 µM	> 10 µM	> 10 µM	> 10 µM	> 10 µM
Cc1c(Cn2c(C)nc3c(C(=O)O)cc(N4CCOCC4)cc32)cccc1C(F)(F)F [GSK-2636771]	> 10 µM	> 10 µM	> 10 µM	> 10 µM	> 10 µM	> 10 µM	> 10 µM	> 10 µM
CC[C@H](Nc1ncnc2[nH]cnc12)c1nc2cccc(F)c2c(=O)n1-c1ccccc1 [IDELALISIB]	> 10 µM	> 10 µM	> 10 µM	> 10 µM	> 10 µM	> 10 µM	> 10 µM	> 10 µM
CS(=O)(=O)CCNCc1ccc(-c2ccc3ncnc(Nc4ccc(OCc5cccc(F)c5)c(Cl)c4)c3c2)o1 [LAPATINIB]	> 10 µM	> 10 µM	> 10 µM	> 10 µM	> 10 µM	> 10 µM	> 10 µM	> 10 µM
Nc1nc(OCc2cc(Br)cs2)c2[nH]cnc2n1 [LOMEGUATRIB]	> 10 µM	> 10 µM	> 10 µM	> 10 µM	> 10 µM	> 10 µM	> 10 µM	> 10 µM
O=C(O)CC[C@H]1CC[C@@](c2cc(F)ccc2F)(S(=O)(=O)c2ccc(Cl)cc2)CC1 [MK-0752]	> 10 µM	> 10 µM	> 10 µM	> 10 µM	> 10 µM	> 10 µM	> 10 µM	> 10 µM
COc1ccc2c(c1OC)C(=O)O[C@@H]2[C@H]1c2c(cc3c(c2OC)OCO3)CCN1C [NOSCAPINE HYDROCHLORIDE]	> 10 µM	> 10 µM	> 10 µM	> 10 µM	> 10 µM	> 10 µM	> 10 µM	> 10 µM
CCN1CCN(c2ccc(Nc3cc(N(C)C(=O)Nc4c(Cl)c(OC)cc(OC)c4Cl)ncn3)cc2)CC1 [NVP-BGJ398]	> 10 µM	> 10 µM	> 10 µM	> 10 µM	> 10 µM	> 10 µM	> 10 µM	> 10 µM
Cc1[nH]c(/C=C2\C(=O)Nc3ccccc32)c(C)c1CCC(=O)O [ORANTINIB]	> 10 µM	> 10 µM	> 10 µM	> 10 µM	> 10 µM	> 10 µM	> 10 µM	> 10 µM
Cc1ccc(Nc2nccc(N(C)c3ccc4c(C)n(C)nc4c3)n2)cc1S(N)(=O)=O [PAZOPANIB]	> 10 µM	> 10 µM	> 10 µM	> 10 µM	> 10 µM	> 10 µM	> 10 µM	> 10 µM
OC[C@H]1O[C@@H](n2cnc3c2NC=NC[C@H]3O)C[C@@H]1O [PENTOSTATIN]	> 10 µM	> 10 µM	> 10 µM	> 10 µM	> 10 µM	> 10 µM	> 10 µM	> 10 µM
CCCCCCCCCCCCCCCCCCOP(=O)([O-])OC1CC[N+](C)(C)CC1 [PERIFOSINE]	> 10 µM	> 10 µM	> 10 µM	> 10 µM	> 10 µM	> 10 µM	> 10 µM	> 10 µM
CC(C)(C(=O)NCC(F)(F)C(F)(F)F)C(=O)N[C@@H]1C(=O)Nc2ccccc2-c2ccccc21 [RO-4929097]	> 10 µM	> 10 µM	> 10 µM	> 10 µM	> 10 µM	> 10 µM	> 10 µM	> 10 µM
CNCc1ccc(-c2[nH]c3cc(F)cc4c3c2CCNC4=O)cc1 [RUCAPARIB]	> 10 µM	> 10 µM	> 10 µM	> 10 µM	> 10 µM	> 10 µM	> 10 µM	> 10 µM
CC(C)=CCC/C(C)=C/CC/C(C)=C/CSc1ccccc1C(=O)O [SALIRASIB]	> 10 µM	> 10 µM	> 10 µM	> 10 µM	> 10 µM	> 10 µM	> 10 µM	> 10 µM

Second part, led by results:

EC50 (MOLM-13)	EC50 (U937)	EC50 (MV4-11)	SMILES	EC50 (CHRF288-11)	EC50 (ML-2)	EC50 (CMS)	EC50 (M07e)	EC50 (CMK)
> 10 µM	> 10 µM	> 10 µM	CCc1cc2c(cc1N1CCC(N3CCOCC3)CC1)C(C)(C)c1[nH]c3cc(C#N)ccc3c1C2=O [CH5424802]	> 10 µM	> 10 µM	> 10 µM	> 10 µM	> 10 µM
> 10 µM	> 10 µM	> 10 µM	CC(C)(C)c1nc(-c2cccc(NS(=O)(=O)c3c(F)cccc3F)c2F)c(-c2ccnc(N)n2)s1 [DABRAFENIB]	> 10 µM	> 10 µM	> 10 µM	> 10 µM	> 10 µM
> 10 µM	> 10 µM	> 10 µM	CCN(CCO)CCCC(C)Nc1ccnc2cc(Cl)ccc12 (stereo not shown) [HYDROXYCHLOROQUINE]	> 10 µM	> 10 µM	> 10 µM	> 10 µM	> 10 µM
> 10 µM	> 10 µM	> 10 µM	O[C@@H]1CO[C@H]2[C@@H]1OC[C@@H]2O [ISOSORBIDE]	> 10 µM	> 10 µM	> 10 µM	> 10 µM	> 10 µM
> 10 µM	> 10 µM	> 10 µM	Cc1cccc(-c2nn3c(c2-c2ccnc4ccc(C(N)=O)cc24)CCC3)n1 [LY2157299]	> 10 µM	> 10 µM	> 10 µM	> 10 µM	> 10 µM
> 10 µM	> 10 µM	> 10 µM	S=c1[nH]cnc2nc[nH]c12 [MERCAPTOPURINE]	> 10 µM	> 10 µM	> 10 µM	> 10 µM	> 10 µM
> 10 µM	> 10 µM	> 10 µM	Clc1ccc(C(c2ccccc2Cl)C(Cl)Cl)cc1 (stereo not shown) [MITOTANE]	> 10 µM	> 10 µM	> 10 µM	> 10 µM	> 10 µM
> 10 µM	> 10 µM	> 10 µM	CO[C@@H]1[C@@H](OC(N)=O)[C@@H](O)[C@H](Oc2ccc3c(O)c(NC(=O)c4ccc(O)c(CC=C(C)C)c4)c(=O)oc3c2C)OC1(C)C [NOVOBIOCIN SODIUM]	> 10 µM	> 10 µM	> 10 µM	> 10 µM	> 10 µM
> 10 µM	> 10 µM	> 10 µM	CCCC(=O)OCOC(=O)C(C)(C)C [PIVANEX]	> 10 µM	> 10 µM	> 10 µM	> 10 µM	> 10 µM
> 10 µM	> 10 µM	> 10 µM	CC(C)c1nc(N(C)S(C)(=O)=O)nc(-c2ccc(F)cc2)c1/C=C/[C@@H](O)C[C@@H](O)CC(=O)O [ROSUVASTATIN]	> 10 µM	> 10 µM	> 10 µM	> 10 µM	> 10 µM
